Common to all, as to assay type: cell-based
Series [1] concerns SARS-CoV-2 PsV B.1.1.529 (Omicron). Description: microbe, parasite or virus in culture. The following applies: Severe acute respiratory syndrome coronavirus 2, Vero/TMPRSS2, read-out: IC50, inhibition of PsV entry.
For series [2], the system named is SARS-CoV-2 PsV B.1.351 (Beta). In words: microbe, parasite or virus in culture. To be noted: Severe acute respiratory syndrome coronavirus 2, HeLa-ACE2, read-out: IC50, inhibition of PsV entry.
For series [3], the system named is SARS-CoV-2 PsV B.1.1.529 (Omicron). In words: microbe, parasite or virus in culture. To be noted: Severe acute respiratory syndrome coronavirus 2, HeLa-ACE2, read-out: IC50, inhibition of PsV entry.
The subject of series [4] is endosomal acidification in HeLa-ACE2 cells. In words: Inhibition of endosomal acidification (LysoTracker Red DND-99), HeLa-ACE2 cells. How it is done:
Inhibition of endosomal acidification was measured using LysoTracker Red DND-99 (ThermoFisher). HeLa-ACE2 and Vero-TMPRSS2 cells were prepared following the above-mentioned protocol, where 10,000 cells/well of pre-seeded cells were cocultured with the same serial dilutions of the sample compounds at 37°C for 2 h. Following this, 0.1 μM final concentration of LysoTracker Red DND-99 (ThermoFisher) was added to each well and incubated for 30 min at 37°C. The cell medium was then replaced with 100 μL of FluoroBrite DMEM (ThermoFisher). Fluorescence was measured using a Synergy Neo2 Multi-Mode Assay Microplate Reader (Biotek Instruments) while employing a Texas Red filter. Data were plotted and IC50 values were calculated using Prism 9 (GraphPad).

Series [5] has as its system SARS-CoV-2 PsV B.1.351 (Beta). In words: microbe, parasite or virus in culture. To be noted: Severe acute respiratory syndrome coronavirus 2, Vero/TMPRSS2, read-out: IC50, inhibition of PsV entry.
Series [6] has as its system SARS-CoV-2 PsV (wild-type S protein). Description: microbe, parasite or virus in culture. The following applies: for IC50: Severe acute respiratory syndrome coronavirus 2, Vero-TMPRSS2 (+TMPRSS2), WT PsV, read-out: IC50, inhibition of PsV entry.
For another series, the system named is HeLa-ACE2 cells. Description: Cell viability (CellTiter-Glo), HeLa-ACE2 cells. To be noted: same dose range as PsV assay. How it is done:
(§1) In order to confirm that the reduced luminescence was not related to cell toxicity, HeLa-ACE2 and Vero-TMPRSS2 cell viability upon incubation with serial dilutions of the sample compounds were tested in parallel to the neutralization assay. […] Cell viability was monitored by adding 50 μL of CellTiter-Glo reagent (Promega) to 200 μL of media containing cells. After a 10-minute incubation, 100 μL volume was transferred to a 96-well white plate (Sigma-Aldrich) to measure luminescence using a Synergy Neo2 Multi-Mode Assay Microplate Reader (Biotek Instruments). As an additional measure of cell toxicity Vero cell, lacking TMPRSS2, viability was measured using PrestoBlue (ThermoFisher). 10,000 cells/well of pre-seeded Vero cells were cocultured with the same serial dilutions of the sample compounds at 37°C for 48 h. At 48 h, 10 μL of PrestoBlue (ThermoFisher) was added to 100 μL of media containing cells. After a 2 h incubation, fluorescence was measured using a Spectromax m5e (Molecular Devices) at an excitation of 555 nm and emission of 585 nm. Data were plotted and half-cytotoxic concentration (CC50) values were calculated using Prims 9 (GraphPad).
Background: In ATP-based viability assays light output follows the ATP content of the culture.

In another series the test system is SARS-CoV-2 PsV.
Series [7] relates to SARS-CoV-2 PsV B.1.1.7 (Alpha). In words: microbe, parasite or virus in culture. To be noted: Severe acute respiratory syndrome coronavirus 2, HeLa-ACE2, read-out: IC50, inhibition of PsV entry.
For series [8], the system named is SARS-CoV-2 PsV (wild-type S protein). Description: microbe, parasite or virus in culture.
Series [9] has as its system authentic SARS-CoV-2 (SARS-CoV-2/Canada/ON/VIDO-01/2020/Vero'76/p2). Description: microbe, parasite or virus in culture. The following applies: for IC50: Severe acute respiratory syndrome coronavirus 2, Vero 76, read-out: IC50, authentic SARS-CoV-2.
For series [10] the test system is unchanged. In words: microbe, parasite or virus in culture. To be noted: for IC50: Severe acute respiratory syndrome coronavirus 2, read-out: IC50, authentic SARS-CoV-2.
Series [11] concerns SARS-CoV-2 PsV B.1.1.7 (Alpha). Description: microbe, parasite or virus in culture. To be noted: Severe acute respiratory syndrome coronavirus 2, Vero/TMPRSS2, read-out: IC50, inhibition of PsV entry.
Series [12] in a line: Cell viability (CellTiter-Glo), HeLa-ACE2 cells. The following applies: human, read-out: half-cytotoxic concentration (CC50). How it is done: as §1
For series [13], the system named is endosomal acidification in Vero cells. Description: cells. To be noted: Vero cells, 40 μM, singlet (n=1); for inhibition at 40 µM: Chlorocebus sabaeus, read-out: Percent Inhibition (%) of endosomal acidification. How it is done: Inhibition of endosomal acidification was measured using LysoTracker Red DND-99 (ThermoFisher). […] Data were plotted using Prism 9 (GraphPad).

Where [14] appears, read: Severe acute respiratory syndrome coronavirus 2, HeLa-ACE2, read-out: IC50, inhibition of PsV entry, HeLa-ACE2 (-TMPRSS2), wild-type S PsV.
Setting [15] is: HeLa-ACE2, concentrations higher than 1 μM.
[16] abbreviates: HeLa-ACE2, concentrations up to 40 μM.

Structures can show the parent of a compound that is named as a salt. Where two headings read alike, the source gives them in different places.

`CO/C1=C\C(C)=C\[C@@H](C)[C@@H](O)[C@@H](C)C/C(C)=C/C=C/[C@H](OC)[C@@H]([C@@H](C)[C@@H](O)[C@H](C)[C@@]2(O)C[C@@H](O)[C@H](C)[C@@H](C(C)C)O2)OC1=O` [bafilomycin A1]: the half-maximal inhibitory concentration (IC50) (as a rule, the concentration that inhibits the measured activity by half) turned out to be 0.0019 µM in series [1]; 0.0005 µM in [2]; 0.0003 µM in [3]; 0.0009 µM in series [4] (HeLa-ACE2 cells); 0.0034 µM in series [5]; 0.0096 µM in series [6]. For the same compound, the IC50 in series [7] came out at 0.0008 µM; in [8] (Severe acute respiratory syndrome coronavirus 2, HeLa-ACE2, HeLa-ACE2 (-TMPRSS2), WT PsV, read-out: IC50, inhibition of PsV entry) it was 0.0004 µM; in series [9], 0.009 µM; in [10], 0.0004 µM. Moreover, the “potency of bafilomycin A1 relative to Camostat in stopping viral entry” value in series [6] (Vero-TMPRSS2, ratio of IC50 values) is listed as 26 fold. Also, in the series with HeLa-ACE2 cells, the “associated cell cytotoxicity (in words)” value is listed as “without displaying any associated cell cytotoxicity”. Further, the “inhibition of PsV entry by single compound (in words)” value in the series with SARS-CoV-2 PsV is listed as “neither Camostat nor bafilomycin A1 alone fully inhibited PsV entry”. Further, the “effect on SARS-CoV-2 infection titers (in words)” value in [9] and in series [10] was “significantly reduced” throughout.

For the compound `CN(C)C(=O)COC(=O)Cc1ccc(OC(=O)c2ccc(NC(=N)N)cc2)cc1` [Camostat], the IC50 in [1] was over 7.5 µM; in series [2], over 300 µM; in series [3] it was over 300 µM; in [5], 0.275 µM; in series [6], 0.252 µM; in series [7], over 300 µM. The IC50 in [8] (Severe acute respiratory syndrome coronavirus 2, HeLa-ACE2, read-out: IC50, inhibition of PsV entry, HeLa-ACE2 (-TMPRSS2), WT PsV) is over 300 µM; in series [8] (setting [14]), over 200 µM; in series [9] it was over 100 µM; in [10] it was 0.038 µM; in [11] it was 0.133 µM. Besides, in the series with SARS-CoV-2 PsV, the “inhibition of PsV entry by single compound (in words)” value is reported as “neither Camostat nor bafilomycin A1 alone fully inhibited PsV entry”. In addition, the “inhibition of PsV entry (in words)” value in [8] (HeLa-ACE2 cells lacking TMPRSS2) is “unable to inhibit”.

For `CCN(CC)Cc1cc(Nc2ccnc3cc(Cl)ccc23)ccc1O` [amodiaquine], the CC50 in [12] stood at 34.7 µM. In addition, the IC50 in [8] (setting [14]) is 2.5 µM.

On to `O=C(Nc1ccc([N+](=O)[O-])cc1Cl)c1cc(Cl)ccc1O` [niclosamide], for which, in series [4] (setting [15]), the “endosomal acidification inhibition (in words)” value is on record as “efficient endosomal acidification inhibition”. For the same compound, in series [13], the inhibition – broadly, the relative decrease from the control value, in per cent – at 40 µM turned out to be 75%. The CC50 in series [12] stood at 0.4 µM. In series [8] (setting [15]), the “PsV infection (in words)” value is on record as “no measurable infection”.

For `O=C(Nc1cc(Cl)cc(Cl)c1O)c1c(O)c(Cl)cc(Cl)c1Cl` [Oxyclozanide, oxyclozanide], the “effect on endosomal acidification (in words)” value in [4] (setting [16]) is reported as “did not alter”. Further, in series [13], the inhibition at 40 µM amounted to 55%. Besides, the CC50 in [12] was 18.7 µM. In addition, the “effect on infection levels (in words)” value in [8] (setting [16]) is recorded as “did not alter”.

In the case of `CCN(CC)CCCC(C)Nc1c2ccc(Cl)cc2nc2ccc(OC)cc12` (stereo not shown) [quinacrine], the CC50 in [12] was determined as 1.7 µM. Further, in series [8] (setting [14]), the IC50 was found to be 0.9 µM.

For `O=c1[nH]c2ccccc2n1C1CCN(CCCC(c2ccc(F)cc2)c2ccc(F)cc2)CC1` [PIMOZIDE], in [13], the inhibition at 40 µM was 54%.

As to `CN(C)c1ccc(C(=C2C=CC(=[N+](C)C)C=C2)c2ccc(N(C)C)cc2)cc1` [GENTIAN VIOLET], in series [13], the inhibition at 40 µM turned out to be 95%.

For the compound `COc1cc(NC(C)CCCN)c2ncccc2c1` (stereo not shown) [PRIMAQUINE PHOSPHATE], the inhibition at 40 µM in series [13] was determined as 68%.

For the compound `CC(C)c1c(O)ccc2c1CC[C@H]1C(C)(C)CCC[C@]21C` [TOTAROL], the inhibition at 40 µM in series [13] amounted to 74%.

Consider `CCN(CC)CCCC(C)Nc1ccnc2cc(Cl)ccc12` (stereo not shown) [chloroquine], for which, in [12], the CC50 was determined as 25.7 µM. Besides, the IC50 in [8] (setting [14]) was 2.6 µM.

On to `CN1C[C@H](CNC(=O)OCc2ccccc2)C[C@@H]2c3cccc4c3c(cn4C)C[C@H]21` [METERGOLINE], for which the inhibition at 40 µM in [13] is 53%.

For `CN(C)CCOc1ccc(/C(=C(/CCCl)c2ccccc2)c2ccccc2)cc1` [TOREMIPHENE CITRATE], the “Percent Inhibition (%) of endosomal acidification” value (from here on “Percent Inhibition (%)”) in series [13] is 68%.

Consider `CCCCCCc1ccc(O)cc1O.Nc1c2ccccc2nc2ccccc12` [ACRISORCIN], for which the “Percent Inhibition (%)” value in [13] was determined as 50%.

Consider `CCCC(C(=O)OCCN(CC)CC)(c1ccccc1)c1ccccc1` [PROADIFEN HYDROCHLORIDE], for which, in [13], the inhibition at 40 µM worked out at 59%.

As for `CCN(CC)CCOC(=O)C(c1ccccc1)C1CCCCC1` (stereo not shown) [DROFENINE HYDROCHLORIDE], the inhibition at 40 µM in [13] came out at 58%.

With `CCCCCCCCCCCCCCCC[N+](C)(C)Cc1ccccc1` [C[…]], in series [13], the inhibition at 40 µM is 90%.

`Oc1cc(Cl)ccc1Oc1ccc(Cl)cc1Cl` [TRICLOSAN]: the inhibition at 40 µM in series [13] is 96%.

Consider `CC(C)=CCC/C(C)=C/CC/C(C)=C/CO` [FARNESOL], for which the inhibition at 40 µM in series [13] came out at 76%.

Turning to `Cc1cc(C(C#N)c2ccc(Cl)cc2)c(Cl)cc1NC(=O)c1cc(I)cc(I)c1O` (stereo not shown) [CLOSANTEL], in series [13], the inhibition at 40 µM stood at 56%.

On to `CN(C)CC/C=C1/c2ccccc2Sc2ccc(Cl)cc21` [CHLORPROTHIXENE HYDROCHLORIDE], for which, in [13], the inhibition at 40 µM came out at 57%.

For `c1ccc(-c2ccc(C(c3ccccc3)n3ccnc3)cc2)cc1` (stereo not shown) [BIFONAZOLE], in [13], the inhibition at 40 µM is 50%.

As to ABAMECTIN (avermectin B1a shown), in [13], the “Percent Inhibition (%)” value was determined as 59%.

Consider `CNCCC(Oc1ccc(C(F)(F)F)cc1)c1ccccc1` (stereo not shown) [FLUOXETINE], for which the inhibition at 40 µM in series [13] was determined as 67%.

As to `COc1ccc2nc3cc(Cl)ccc3c(Nc3cc(CN4CCCC4)c(O)c(CN4CCCC4)c3)c2n1.O=P(O)(O)O.O=P(O)(O)O.O=P(O)(O)O.O=P(O)(O)O` [PYRONARIDINE TETRAPHOSPHATE], the “Percent Inhibition (%)” value in [13] was 70%.

For `Clc1ccc(COC(Cn2ccnc2)c2ccc(Cl)cc2Cl)c(Cl)c1` (stereo not shown) [MICONAZOLE NITRATE], in [13], the inhibition at 40 µM was 81%.

(Values after article PMC9295568, “Dual Inhibition of Vacuolar-ATPase and TMPRSS2 Is Required for Complete Blockade of SARS-CoV-2 Entry into Cells” (Antimicrobial Agents and Chemotherapy, 2022).)
